Experimental data from ChEMBL document CHEMBL1132169 (J Med Chem, 1999).

Assays:
[1] = biological target: Sodium-dependent dopamine transporter (Rattus norvegicus) (UniProt P23977); experiment: Discrimination ratio of compound is the ratio of inhibitory activity against [3H]dopamine uptake over [3H][…] binding
[2] = biological target: T1, Sodium-dependent dopamine transporter (Rattus norvegicus, UniProt P23977); experiment: Inhibition of dopamine uptake into rat striatal tissue, using [3H]- dopamine as the radioligand.; type: tissue-based, Striatum
[3] = biological target: T1, Sodium-dependent dopamine transporter; experiment: Inhibitory binding activity against rat striatal tissue using [3H][…] as the radioligand.; type: tissue-based, Striatum

T1 sequence (P23977 whole entry): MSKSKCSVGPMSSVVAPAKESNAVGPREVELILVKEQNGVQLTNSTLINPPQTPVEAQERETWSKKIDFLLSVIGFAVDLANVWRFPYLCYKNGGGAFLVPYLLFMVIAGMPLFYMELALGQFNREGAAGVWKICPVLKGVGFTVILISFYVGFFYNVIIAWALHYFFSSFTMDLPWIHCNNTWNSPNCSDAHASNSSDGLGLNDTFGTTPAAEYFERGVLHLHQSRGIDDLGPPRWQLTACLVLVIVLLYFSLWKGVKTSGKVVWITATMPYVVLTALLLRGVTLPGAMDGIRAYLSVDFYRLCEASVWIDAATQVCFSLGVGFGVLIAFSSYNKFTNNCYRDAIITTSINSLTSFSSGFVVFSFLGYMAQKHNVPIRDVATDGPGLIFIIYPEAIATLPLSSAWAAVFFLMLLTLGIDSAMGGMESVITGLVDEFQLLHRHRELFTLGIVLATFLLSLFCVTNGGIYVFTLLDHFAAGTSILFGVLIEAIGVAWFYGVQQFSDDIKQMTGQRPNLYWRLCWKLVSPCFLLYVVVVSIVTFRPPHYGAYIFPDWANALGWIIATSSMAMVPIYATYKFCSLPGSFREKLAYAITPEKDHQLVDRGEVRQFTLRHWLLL
Chain of Sodium-dependent dopamine transporter (Rattus norvegicus) (P23977 whole entry): as above

Compound | Discrimination ratio [1] | IC50 [2] [nM] | IC50 [3] [nM]
COc1ccc(C2C3CCC(CC3)C2CN(C)C)cc1 (stereo not given) | 3.8 | 1430 | 380
CN(C)CC1C2CCC(C2)C1c1ccccc1 (stereo in doubt; 12a) [listing 1 of 2 here] | 1.7 |  | 
CN(C)CC1C2CCC(CC2)C1c1ccc(Cl)c(Cl)c1 (stereo in doubt; 6d) [listing 1 of 2 here] |  | 56.3 | 21.3
NCC1C2CCC(C2)C1c1ccc(Cl)cc1 (stereo in doubt; 11c) [listing 1 of 2 here] |  | 593 | 207
NCC1C2CCC(C2)C1c1ccccc1 (stereo in doubt; 11a) [listing 1 of 2 here] |  | 8850 | 2900
NCC1C2CCC(CC2)C1c1ccccc1 (stereo in doubt; 5a) [listing 1 of 2 here] |  | 5930 | 1200
CN(C)CC1C2CCC(C2)C1c1ccccc1 (stereo in doubt; 14a) [listing 1 of 2 here] |  | 2750 | 2140
NCC1C2CCC(C2)C1c1ccccc1 (stereo in doubt; 11a) [listing 2 of 2 here] | 3.1 |  | 
COc1ccc(C2C3CCC(C3)C2CN)cc1 (stereo in doubt; 13g) [listing 1 of 2 here] |  | 2260 | 495
NCC1C2CCC(CC2)C1c1ccccc1 (stereo in doubt; 7a) [listing 1 of 2 here] |  | 1480 | 270
COc1cccc(C2C3CCC(C3)C2CN)c1 (stereo in doubt; 9f) [listing 1 of 2 here] | 3.3 |  | 
NCC1C2CCC(C2)C1c1ccc(Cl)c(Cl)c1 (stereo in doubt; 9d) [listing 1 of 2 here] | 5 |  | 
NCC1C2CCC(CC2)C1c1ccc(Cl)c(Cl)c1 (stereo in doubt; 5d) [listing 1 of 2 here] |  | 97.5 | 37.5
NCC1C2CCC(C2)C1c1ccc(Cl)c(Cl)c1 (stereo in doubt; 9d) [listing 2 of 2 here] |  | 58 | 11.6
CN(C)CC1C2CCC(CC2)C1c1ccc(Cl)c(Cl)c1 (stereo in doubt; 6d) [listing 2 of 2 here] | 2.6 |  | 
CN(C)CC1C2CCC(CC2)C1c1cccc(Cl)c1 (stereo in doubt; 8b) [listing 1 of 2 here] | 3.3 |  | 
NCC1C2CCC(CC2)C1c1ccccc1 (stereo in doubt; 7a) [listing 2 of 2 here] | 5.5 |  | 
COc1cccc(C2C3CCC(C3)C2CN)c1 (stereo in doubt; 9f) [listing 2 of 2 here] |  | 29300 | 8820
COc1ccc(C2C3CCC(C3)C2CN)cc1 (stereo in doubt; 13g) [listing 2 of 2 here] | 4.6 |  | 
COc1cccc(C2C3CCC(C3)C2CN)c1 (stereo in doubt; 11f) [listing 1 of 2 here] |  | 6560 | 2010
NCC1C2CCC(C2)C1c1ccc(Cl)c(Cl)c1 (stereo in doubt; 13d) [listing 1 of 2 here] |  | 98.7 | 21.3
NCC1C2CCC(C2)C1c1ccccc1 (stereo in doubt; 15a) [listing 1 of 2 here] |  | 875 | 251
NCC1C2CCC(CC2)C1c1ccc(Cl)cc1 (stereo in doubt; 7c) [listing 1 of 2 here] | 5.3 |  | 
NCC1C2CCC(CC2)C1c1ccc(Cl)c(Cl)c1 (stereo in doubt; 5d) [listing 2 of 2 here] | 2.6 |  | 
NCC1C2CCC(C2)C1c1ccccc1 (stereo in doubt; 13a) [listing 1 of 2 here] | 4.3 |  | 
CN(C)CC1C2CCC(CC2)C1c1ccccc1 (stereo in doubt; 8a) [listing 1 of 2 here] | 3.1 |  | 

Compound | Discrimination ratio [1] | IC50 [2] [nM] | IC50 [3] [nM]
NCC1C2CCC(CC2)C1c1cccc(Cl)c1 (stereo in doubt; 5b) [listing 1 of 2 here] |  | 960 | 204
CN(C)CC1C2CCC(CC2)C1c1ccccc1 (stereo in doubt; 8a) [listing 2 of 2 here] |  | 980 | 313
COc1ccc(C2C3CCC(C3)C2CN)cc1 (stereo in doubt; 11g) [listing 1 of 2 here] |  | 7120 | 1700
NCC1C2CCC(CC2)C1c1cccc(Cl)c1 (stereo in doubt; 7b) [listing 1 of 2 here] | 3.7 |  | 
CN(C)CC1C2CCC(C2)C1c1ccccc1 (stereo in doubt; 10a) [listing 1 of 2 here] |  | 1100 | 515
NCC1C2CCC(C2)C1c1ccc(Cl)cc1 (stereo in doubt; 15c) [listing 1 of 2 here] | 4.5 |  | 
NCC1C2CCC(CC2)C1c1ccc(Cl)c(Cl)c1 (stereo in doubt; 7d) [listing 1 of 2 here] |  | 34 | 21.5
CN(C)CC1C2CCC(C2)C1c1ccccc1 (stereo in doubt; 14a) [listing 2 of 2 here] | 1.3 |  | 
NCC1C2CCC(CC2)C1c1ccc(Cl)cc1 (stereo in doubt; 5c) [listing 1 of 2 here] | 5.2 |  | 
NCC1C2CCC(C2)C1c1cccc(Cl)c1 (stereo in doubt; 11b) [listing 1 of 2 here] |  | 780 | 239
COc1ccc(C2C3CCC(CC3)C2CN)cc1 (stereo not given) | 6 | 1500 | 249
NCC1C2CCC(CC2)C1c1ccccc1 (stereo in doubt; 5a) [listing 2 of 2 here] | 5 |  | 
NCC1C2CCC(C2)C1c1cccc(Cl)c1 (stereo in doubt; 9b) [listing 1 of 2 here] | 5.1 |  | 
NCC1C2CCC(CC2)C1c1ccc(N)cc1 (stereo not given) | 4.4 | 704 | 160
CN(C)CC1C2CCC(CC2)C1c1ccccc1 (stereo in doubt; 6a) [listing 1 of 2 here] | 4.4 |  | 
NCC1C2CCC(C2)C1c1cccc(Cl)c1 (stereo in doubt; 9b) [listing 2 of 2 here] |  | 758 | 149
NCC1C2CCC(C2)C1c1ccc(Cl)cc1 (stereo in doubt; 13c) [listing 1 of 2 here] | 5.3 |  | 
NCC1C2CCC(C2)C1c1ccc(Cl)cc1 (stereo in doubt; 9c) [listing 1 of 2 here] |  | 230 | 46
COc1ccccc1C1C2CCC(C2)C1CN (stereo in doubt; 9e) [listing 1 of 2 here] |  | 36600 | 11600
COc1cccc(C2C3CCC(C3)C2CN)c1 (stereo in doubt; 11f) [listing 2 of 2 here] | 3.3 |  | 
NCC1C2CCC(C2)C1c1ccc(Cl)c(Cl)c1 (stereo in doubt; 11d) [listing 1 of 2 here] |  | 93.6 | 32.7
NCC1C2CCC(C2)C1c1ccccc1 (stereo in doubt; 9a) [listing 1 of 2 here] | 6.5 |  | 
COc1ccccc1C1C2CCC(C2)C1CN (stereo in doubt; 11e) [listing 1 of 2 here] | 5.3 |  | 
NCC1C2CCC(C2)C1c1cccc(Cl)c1 (stereo in doubt; 11b) [listing 2 of 2 here] | 3.3 |  | 
NCC1C2CCC(CC2)C1c1cccc(Cl)c1 (stereo in doubt; 5b) [listing 2 of 2 here] | 4.7 |  | 
CN(C)CC1C2CCC(CC2)C1c1ccc(Cl)c(Cl)c1 (stereo in doubt; 8d) [listing 1 of 2 here] | 2.1 |  | 

Compound | Discrimination ratio [1] | IC50 [2] [nM] | IC50 [3] [nM]
NCC1C2CCC(CC2)C1c1ccc(Cl)cc1 (stereo in doubt; 5c) [listing 2 of 2 here] |  | 375 | 71.4
NCC1C2CCC(C2)C1c1ccc(Cl)cc1 (stereo in doubt; 13c) [listing 2 of 2 here] |  | 348 | 65.3
COc1ccc(C2C3CCC(C3)C2CN)cc1 (stereo in doubt; 9g) [listing 1 of 2 here] |  | 5550 | 1160
NCC1C2CCC(C2)C1c1ccccc1 (stereo in doubt; 9a) [listing 2 of 2 here] |  | 2220 | 340
NCC1C2CCC(C2)C1c1ccc(Cl)cc1 (stereo in doubt; 9c) [listing 2 of 2 here] | 5 |  | 
CN(C)CC1C2CCC(CC2)C1c1cccc(Cl)c1 (stereo in doubt; 6b) [listing 1 of 2 here] | 5.1 |  | 
CN(C)CC1C2CCC(C2)C1c1ccccc1 (stereo in doubt; 10a) [listing 2 of 2 here] | 2.1 |  | 
CN(C)CC1C2CCC(CC2)C1c1ccccc1 (stereo in doubt; 6a) [listing 2 of 2 here] |  | 840 | 191
NCC1C2CCC(C2)C1c1ccc(Cl)cc1 (stereo in doubt; 11c) [listing 2 of 2 here] | 2.9 |  | 
CN(C)CC1C2CCC(CC2)C1c1cccc(Cl)c1 (stereo in doubt; 6b) [listing 2 of 2 here] |  | 186 | 36.8
COc1ccccc1C1C2CCC(C2)C1CN (stereo in doubt; 9e) [listing 2 of 2 here] | 3.1 |  | 
NCC1C2CCC(C2)C1c1ccccc1 (stereo in doubt; 13a) [listing 2 of 2 here] |  | 3500 | 816
COc1ccc(C2C3CCC(C3)C2CN)cc1 (stereo in doubt; 9g) [listing 2 of 2 here] | 4.8 |  | 
NCC1C2CCC(CC2)C1c1ccc(Cl)c(Cl)c1 (stereo in doubt; 7d) [listing 2 of 2 here] | 1.6 |  | 
NCC1C2CCC(C2)C1c1ccc(Cl)c(Cl)c1 (stereo in doubt; 13d) [listing 2 of 2 here] | 4.6 |  | 
COc1ccccc1C1C2CCC(C2)C1CN (stereo in doubt; 11e) [listing 2 of 2 here] |  | 7860 | 1480
NCC1C2CCC(CC2)C1c1cccc(Cl)c1 (stereo in doubt; 7b) [listing 2 of 2 here] |  | 430 | 117
NCC1C2CCC(CC2)C1c1ccc(Cl)cc1 (stereo in doubt; 7c) [listing 2 of 2 here] |  | 68.3 | 12.9
CN(C)CC1C2CCC(C2)C1c1ccccc1 (stereo in doubt; 12a) [listing 2 of 2 here] |  | 4330 | 2510
COc1ccc(C2C3CCC(C3)C2CN)cc1 (stereo in doubt; 11g) [listing 2 of 2 here] | 4.2 |  | 
NCC1C2CCC(C2)C1c1ccc(Cl)c(Cl)c1 (stereo in doubt; 11d) [listing 2 of 2 here] | 2.9 |  | 
NCC1C2CCC(C2)C1c1ccc(Cl)cc1 (stereo in doubt; 15c) [listing 2 of 2 here] |  | 34.9 | 7.7
NCC1C2CCC(C2)C1c1ccccc1 (stereo in doubt; 15a) [listing 2 of 2 here] | 3.5 |  | 
CN(C)CC1C2CCC(CC2)C1c1cccc(Cl)c1 (stereo in doubt; 8b) [listing 2 of 2 here] |  | 283 | 86
CN(C)CC1C2CCC(CC2)C1c1ccc(Cl)c(Cl)c1 (stereo in doubt; 8d) [listing 2 of 2 here] |  | 29.3 | 14.2
